Source: PMC7402526, “An in vitro quantitative systems pharmacology approach for deconvolving mechanisms of drug-induced, multilineage cytopenias” (PLoS Computational Biology, 2020)
Entries after “also recorded” stand apart in the source; their conditions may differ.

Key:
[1] = tested on: human bone marrow-derived CD34+ cells differentiated into multiple hematopoietic lineages; test: MLTA, overall effects across hematopoietic lineages; assay type: cell-based; conditions: 0.2-2500 nM, 6 days, relative to vehicle control
Summary of the method: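 Thawed primary human bone marrow CD34+ cells grown in SFEM II with a multi-lineage cytokine cocktail, drug added day 0, 6 days at 37°C, 5% CO2. Subsets counted by 17-parameter flow cytometry with TruCount beads, normalized to six vehicle wells per donor (2–7 donors); Emax model fitted per cell type.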

[2] = tested on: monocytes (monocyte-lin); test: MLTA, Mono: concentration-response and QSP model fit; assay type: cell-based, human; conditions: Homo sapiens, Monocyte, 144 h
Summary of the method: (§1)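 Six-day flow cytometry counts, bead-normalized and expressed relative to the mean of six vehicle wells, underlie each value. Cells were primary human bone marrow CD34+ cells cultured in SFEM II with cytokines promoting multi-lineage differentiation and self-renewal.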

[3] = tested on: granulocytes (Gran-lin); test: MLTA, Gran: concentration-response and QSP model fit; assay type: cell-based, human; conditions: Homo sapiens, 144 h
Summary of the method: as §1

[4] = tested on: lymphocyte progenitors (LymP); test: MLTA, LymP: concentration-response and QSP model fit; assay type: cell-based, human; conditions: Homo sapiens, Lymphocyte, 144 h
Summary of the method: (§2)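 Drug was added at time 0 to thawed human bone marrow CD34+ cells in SFEM II plus a cytokine cocktail. After 6 days at 37°C, subsets were counted by surface-marker flow with TruCount beads. Vehicle-normalized, donor-pooled data then fed an Emax model separating anti-proliferative from cell-killing effects.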

[5] = tested on: granulocyte-macrophage progenitor (GMPs); test: MLTA, GMPs: concentration-response and QSP model fit; assay type: cell-based, human; conditions: Homo sapiens, 144 h
Summary of the method: as §2

[6] = tested on: monocyte progenitors (monocyte prog); test: MLTA, MonoP: concentration-response and QSP model fit; assay type: cell-based, human; conditions: Homo sapiens, Monocyte, 144 h
Summary of the method: as §1

[7] = tested on: MK cells (MK-lin); test: MLTA, MK: concentration-response and QSP model fit; assay type: cell-based, human; conditions: Homo sapiens, 144 h
Summary of the method: as §2

[8] = tested on: B cells (B-lin); test: MLTA, B-lin: concentration-response and QSP model fit; assay type: cell-based, human; conditions: Homo sapiens, B-cell, 144 h
Summary of the method: as §2

[9] = tested on: total dead cells (totalDeadCells); test: MLTA, total dead cells concentration-response; assay type: cell-based; conditions: Homo sapiens, 144 h, 6 days, normalized to vehicle control, read-out: total_dead normalized cell count
Summary of the method: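 Freeze-thawed primary human bone marrow CD34+ cells in SFEM II with cytokine cocktail, drug added day 0, 6 days at 37°C, 5% CO2. Live/dead counts by 17-parameter flow cytometry with DAPI exclusion, bead-normalized, volume-corrected to cells/mL. Normalized per donor to mean of six vehicle wells; 2–7 donors pooled.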

[10] = QSP model fit of 6-day MLTA data

## CS(=O)(=O)N1CCN(Cc2cc3nc(-c4cccc5[nH]ncc45)nc(N4CCOCC4)c3s2)CC1 [pictilisib]
[1]
  effect on hematopoietic cell numbers across cell types: moderate reduction of cells types; also recorded: decreased most cell types
[2]; [10]
  EC50: 1020 nM
[2]; dose 0.2 nM, 6 days, normalized to vehicle control, read-out: Mon normalized cell count
  activity at 0.0002 µM: 92.5%
[2]; dose 1 nM, 6 days, normalized to vehicle control, read-out: Mon normalized cell count
  activity at 0.001 µM: 90.6%
[2]; dose 5 nM, 6 days, normalized to vehicle control, read-out: Mon normalized cell count
  activity at 0.005 µM: 79.5%
[2]; dose 25 nM, 6 days, normalized to vehicle control, read-out: Mon normalized cell count
  activity at 0.025 µM: 77.6%
[2]; dose 100 nM, 6 days, normalized to vehicle control, read-out: Mon normalized cell count
  activity at 0.1 µM: 61.1%
[2]; dose 500 nM, 6 days, normalized to vehicle control, read-out: Mon normalized cell count
  activity at 0.5 µM: 30.9%
[2]; dose 2500 nM, 6 days, normalized to vehicle control, read-out: Mon normalized cell count
  activity at 2.5 µM: 12.5%
[2]; parameter from QSP model fitting, read-out: Emax_drug_Mono
  Emax: 3.93%
[3]; [10]
  EC50: 0.167 nM
[3]; dose 0.2 nM, 6 days, normalized to vehicle control, read-out: Gran normalized cell count
  activity at 0.0002 µM: 99.2%
[3]; dose 1 nM, 6 days, normalized to vehicle control, read-out: Gran normalized cell count
  activity at 0.001 µM: 100%
[3]; dose 5 nM, 6 days, normalized to vehicle control, read-out: Gran normalized cell count
  activity at 0.005 µM: 90.3%
[3]; dose 25 nM, 6 days, normalized to vehicle control, read-out: Gran normalized cell count
  activity at 0.025 µM: 78.6%
[3]; dose 100 nM, 6 days, normalized to vehicle control, read-out: Gran normalized cell count
  activity at 0.1 µM: 51.4%
[3]; dose 500 nM, 6 days, normalized to vehicle control, read-out: Gran normalized cell count
  activity at 0.5 µM: 27.9%
[3]; dose 2500 nM, 6 days, normalized to vehicle control, read-out: Gran normalized cell count
  activity at 2.5 µM: 9.84%
[3]; parameter from QSP model fitting, read-out: Emax_drug_Gran
  Emax: 23.2%
[4]; dose 0.2 nM, 6 days, normalized to vehicle control, read-out: LymP normalized cell count
  activity at 0.0002 µM: 93.3%
[4]; dose 1 nM, 6 days, normalized to vehicle control, read-out: LymP normalized cell count
  activity at 0.001 µM: 105%
[4]; dose 5 nM, 6 days, normalized to vehicle control, read-out: LymP normalized cell count
  activity at 0.005 µM: 86.9%
[4]; dose 25 nM, 6 days, normalized to vehicle control, read-out: LymP normalized cell count
  activity at 0.025 µM: 77.7%
[4]; dose 100 nM, 6 days, normalized to vehicle control, read-out: LymP normalized cell count
  activity at 0.1 µM: 49.6%
[4]; dose 500 nM, 6 days, normalized to vehicle control, read-out: LymP normalized cell count
  activity at 0.5 µM: 46.4%
[4]; dose 2500 nM, 6 days, normalized to vehicle control, read-out: LymP normalized cell count
  activity at 2.5 µM: 19.2%
[4]; parameter from QSP model fitting, read-out: Emax_drug_LymP
  Emax: 0.032%
[5]; [10]
  EC50: 1.41 nM
[5]; dose 0.2 nM, 6 days, normalized to vehicle control, read-out: GMPs normalized cell count
  activity at 0.0002 µM: 95.6%
[5]; dose 1 nM, 6 days, normalized to vehicle control, read-out: GMPs normalized cell count
  activity at 0.001 µM: 97.9%
[5]; dose 5 nM, 6 days, normalized to vehicle control, read-out: GMPs normalized cell count
  activity at 0.005 µM: 92.7%
[5]; dose 25 nM, 6 days, normalized to vehicle control, read-out: GMPs normalized cell count
  activity at 0.025 µM: 75.4%
[5]; dose 100 nM, 6 days, normalized to vehicle control, read-out: GMPs normalized cell count
  activity at 0.1 µM: 62.5%
[5]; dose 500 nM, 6 days, normalized to vehicle control, read-out: GMPs normalized cell count
  activity at 0.5 µM: 39.5%
[5]; dose 2500 nM, 6 days, normalized to vehicle control, read-out: GMPs normalized cell count
  activity at 2.5 µM: 22.5%
[6]; QSP model fit of 6-day MLTA data, read-out: EC50MonoP
  EC50: 117 nM
[6]; dose 0.2 nM, 6 days, normalized to vehicle control, read-out: MonoPs normalized cell count
  activity at 0.0002 µM: 105%
[6]; dose 1 nM, 6 days, normalized to vehicle control, read-out: MonoPs normalized cell count
  activity at 0.001 µM: 94.3%
[6]; dose 5 nM, 6 days, normalized to vehicle control, read-out: MonoPs normalized cell count
  activity at 0.005 µM: 87.2%
[6]; dose 25 nM, 6 days, normalized to vehicle control, read-out: MonoPs normalized cell count
  activity at 0.025 µM: 74.8%
[6]; dose 100 nM, 6 days, normalized to vehicle control, read-out: MonoPs normalized cell count
  activity at 0.1 µM: 49%
[6]; dose 500 nM, 6 days, normalized to vehicle control, read-out: MonoPs normalized cell count
  activity at 0.5 µM: 30.2%
[6]; dose 2500 nM, 6 days, normalized to vehicle control, read-out: MonoPs normalized cell count
  activity at 2.5 µM: 11.3%
[6]; parameter from QSP model fitting, read-out: Emax_drug_MonoP
  Emax: 140%
[7]; [10]
  EC50: 1070 nM
[7]; dose 0.2 nM, 6 days, normalized to vehicle control, read-out: MK normalized cell count
  activity at 0.0002 µM: 100%
[7]; dose 1 nM, 6 days, normalized to vehicle control, read-out: MK normalized cell count
  activity at 0.001 µM: 107%
[7]; dose 5 nM, 6 days, normalized to vehicle control, read-out: MK normalized cell count
  activity at 0.005 µM: 113%
[7]; dose 25 nM, 6 days, normalized to vehicle control, read-out: MK normalized cell count
  activity at 0.025 µM: 85.6%
[7]; dose 100 nM, 6 days, normalized to vehicle control, read-out: MK normalized cell count
  activity at 0.1 µM: 78.4%
[7]; dose 500 nM, 6 days, normalized to vehicle control, read-out: MK normalized cell count
  activity at 0.5 µM: 49.7%
[7]; dose 2500 nM, 6 days, normalized to vehicle control, read-out: MK normalized cell count
  activity at 2.5 µM: 16.8%
[7]; parameter from QSP model fitting, read-out: Emax_drug_MK
  Emax: 12.3%
[8]; [10]
  EC50: 91.3 nM
[8]; dose 0.2 nM, 6 days, normalized to vehicle control, read-out: B-lin normalized cell count
  activity at 0.0002 µM: 93.8%
[8]; dose 1 nM, 6 days, normalized to vehicle control, read-out: B-lin normalized cell count
  activity at 0.001 µM: 107%
[8]; dose 5 nM, 6 days, normalized to vehicle control, read-out: B-lin normalized cell count
  activity at 0.005 µM: 81.5%
[8]; dose 25 nM, 6 days, normalized to vehicle control, read-out: B-lin normalized cell count
  activity at 0.025 µM: 65.5%
[8]; dose 100 nM, 6 days, normalized to vehicle control, read-out: B-lin normalized cell count
  activity at 0.1 µM: 37.5%
[8]; dose 500 nM, 6 days, normalized to vehicle control, read-out: B-lin normalized cell count
  activity at 0.5 µM: 16.2%
[8]; dose 2500 nM, 6 days, normalized to vehicle control, read-out: B-lin normalized cell count
  activity at 2.5 µM: 6.19%
[8]; parameter from QSP model fitting, read-out: Emax_drug_B
  Emax: 51.4%
[9]; dose 0.2 nM
  activity at 0.0002 µM: 105%
[9]; dose 1 nM
  activity at 0.001 µM: 110%
[9]; dose 5 nM
  activity at 0.005 µM: 91.5%
[9]; dose 25 nM
  activity at 0.025 µM: 93.1%
[9]; dose 100 nM
  activity at 0.1 µM: 55.3%
[9]; dose 500 nM
  activity at 0.5 µM: 40.1%
[9]; dose 2500 nM
  activity at 2.5 µM: 34.3%
